According to patent US7879907B2, “3-phenylpropanoic compound activators of receptors of PPAR type and pharmaceutical/cosmetic compositions comprised thereof” (Galderma Research & Development, priority 2007, dated 2011):

Target: T1, PPARγ (Gal-hPPAR) (Homo sapiens, UniProt P37231)
T1 construct: The reporter is printed as ERE-βGlob-Luc-SV-Neo
T1 sequence (P37231 238-505 limits assumed): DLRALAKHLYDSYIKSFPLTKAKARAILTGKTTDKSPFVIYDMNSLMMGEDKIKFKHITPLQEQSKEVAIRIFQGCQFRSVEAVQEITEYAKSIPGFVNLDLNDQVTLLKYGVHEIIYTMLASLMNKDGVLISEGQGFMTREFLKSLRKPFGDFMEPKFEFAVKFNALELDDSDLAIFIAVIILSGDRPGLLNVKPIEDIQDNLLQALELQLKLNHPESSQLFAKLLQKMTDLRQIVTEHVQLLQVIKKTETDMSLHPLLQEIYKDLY
Assay: Cross-curve PPAR transactivation test (luciferase reporter, HeLN cells), PPARγ
Format: cell-based
Conditions: HeLN stable transfectants; Schild regression against reference agonist; apparent Kd; read-out: PPAR gamma Kd app
Description: The activation of PPAR receptors with an agonist (activator) in HeLN cells leads to the expression of a reporter gene, luciferase, which, in the presence of a substrate, generates light. The modulation of the PPAR receptors is measured by quantifying the luminescence produced after incubating the cells in the presence of a reference agonist. The ligands displace the agonist from its site. The measurement of the activity is performed by quantifying the light produced. This measurement makes it possible to determine the modulatory activity of the compounds according to the invention by determining the constant that is the affinity of the molecule for the PPAR receptor. Since this value can fluctuate depending on the basal activity and the expression of the receptor, it is referred to as Kd apparent (KdApp in nM).
To determine this constant, “cross curves” of the test product against a reference agonist are produced in a 96-well plate: 10 concentrations of the test product plus a concentration 0 are arranged in a line, and 7 concentrations of the agonist plus a concentration 0 are arranged in a column. This is 88 measurement points for 1 product and 1 receptor. […]
The various dilutions of the test products and of the reference ligand are added at a rate of 5 μl per well. […] After 5 minutes, the plates are read by the luminescence detector.

CCCCOc1cc(CCC(=O)O)ccc1CCCc1ccc(OS(=O)(=O)CCCC)c(OC)c1 [Example 5, 3-(4-{3-[4-(butane-1-sulfonyloxy)-3-methoxyphenyl]propyl}-3-butoxyphenyl)propanoic acid]
Kd: 8 nM
